Measurements published in patent publication US11642335B2, “Chemical synthesis of clopidogrel active metabolites and disulfide conjugate prodrugs” (Board of Regents, The University of Texas System, priority 2019, dated 2023).
“Also recorded” adds a separate entry of the source.

Key:
P2Y12R = P2Y12R (Homo sapiens, UniProt Q9H244); conditions: biosynthesized H2, relative to H4; cited from earlier work
[1] = patients treated with CPG; cited from earlier work
[2] = tested on: FeCl3 carotid artery injury-induced thrombosis; experiment: FeCl3 carotid artery injury-induced thrombosis mouse model (in vivo antiplatelet test); conditions: for occlusion time of thrombosis: tail vein administration of 1 mg/kg, compared to vehicle (negative control) and CPG (positive control), FIG. 14, 1 mg/kg
Description: Referring now to FIGS. 14-18, In vivo antiplatelet test of synthetic H3 and H4 in a FeCl3 carotid artery injury-induced thrombosis mouse model.

antiplatelet activity = conditions: cited from earlier work

P2Y12R, sequence (Q9H244 whole entry): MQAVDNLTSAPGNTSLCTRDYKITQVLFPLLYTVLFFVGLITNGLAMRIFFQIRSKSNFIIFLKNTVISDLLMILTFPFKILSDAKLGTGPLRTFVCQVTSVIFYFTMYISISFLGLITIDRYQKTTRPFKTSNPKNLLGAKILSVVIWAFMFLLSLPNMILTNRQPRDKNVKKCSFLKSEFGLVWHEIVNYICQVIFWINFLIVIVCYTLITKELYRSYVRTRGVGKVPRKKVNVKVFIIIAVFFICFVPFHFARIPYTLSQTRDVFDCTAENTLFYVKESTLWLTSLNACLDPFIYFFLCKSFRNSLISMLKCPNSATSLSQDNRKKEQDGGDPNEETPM

COC(=O)[C@H](c1ccccc1Cl)N1CC[C@@H](S)/C(=C\C(=O)O)C1 [H2]
potency against P2Y12R in vitro (P2Y12R): similarly potent as H4
detection as circulating metabolite in patients' plasma [1]: not detected

COC(=O)[C@H](c1ccccc1Cl)N1CC[C@@H](S)/C(=C\C(=O)O)C1 [H3]
occlusion time of thrombosis [2]: ineffective
detection as circulating metabolite in patients' plasma [1]: detected as circulating metabolites

COC(=O)[C@H](c1ccccc1Cl)N1CC[C@@H](S)/C(=C\C(=O)O)C1 [H4]
stereospecific potency in vivo ([2]; synthetic metabolite, mice): stereospecific potency in mice; also recorded: stereospecific potency in vivo
occlusion time of thrombosis [2]: significantly prolong the occlusion time of thrombosis
detection as circulating metabolite in patients' plasma [1]: detected as circulating metabolites
activity in in vitro pharmacological studies (antiplatelet) (antiplatelet activity): active
